Reference: patent US20060154964A1, “Diarylmethylidene piperidine derivatives, preparations thereof and uses thereof” (AstraZeneca AB, priority 2003, published 2006)
Like-named read-outs stand apart in the source and are kept apart here.

Tests used:
human δ receptors [1] = target: T1, human δ receptors (Homo sapiens, UniProt P41143); assay: GTP[γ]35S binding functional assay, HEK-293S membranes expressing cloned human δ receptors; format: biochemical; conditions: for Emax: relative to standard δ agonist SNC80
T1 construct: expressed in transfected cells
T1 sequence (P41143 whole entry): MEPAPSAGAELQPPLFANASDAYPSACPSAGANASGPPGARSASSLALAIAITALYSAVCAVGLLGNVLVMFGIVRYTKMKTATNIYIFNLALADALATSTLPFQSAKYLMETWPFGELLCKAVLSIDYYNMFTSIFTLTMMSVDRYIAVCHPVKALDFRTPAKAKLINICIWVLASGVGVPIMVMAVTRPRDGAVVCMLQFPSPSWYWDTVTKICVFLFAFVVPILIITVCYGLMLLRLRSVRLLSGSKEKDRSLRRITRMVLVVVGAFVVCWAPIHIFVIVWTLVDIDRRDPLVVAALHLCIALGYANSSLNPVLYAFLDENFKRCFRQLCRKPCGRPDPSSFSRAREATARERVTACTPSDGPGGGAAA
Protocol: (§1) The agonist activity of the compounds is measured by determining the degree to which the compounds receptor complex activates the binding of GTP to G-proteins to which the receptors are coupled. In the GTP binding assay, GTP[γ]^35S is combined with test compounds and membranes from HEK-293S cells expressing the cloned human opioid receptors or from homogenised rat or mouse brain. Agonists stimulate GTP[γ]^35S binding in these membranes. The EC50 and Emax values of compounds are determined from dose-response curves. Right shifts of the dose response curve by the delta antagonist naltrindole are performed to verify that agonist activity is mediated through delta receptors. For human δ receptor functional assays, EC50 (low) is measured when the human δ receptors used in the assay were expressed at lower levels in comparison with those used in determining EC50 (high). The Emax values were determined in relation to the standard δ agonist SNC80, i.e., higher than 100% is a compound that have better efficacy than SNC80.
(§2) Rat brain membranes are thawed at 37° C., passed 3 times through a 25-gauge blunt-end needle and diluted in the GTPγS binding (50 mM Hepes, 20 mM NaOH, 100 mM NaCl, 1 mM EDTA, 5 mM MgCl2, pH 7.4, Add fresh: 1 mM DTT, 0.1% BSA). 120 μM GDP final is added membranes dilutions. The EC50 and Emax of compounds are evaluated from 10-point dose-response curves done in 300 μl with the appropriate amount of membrane protein (20 μg/well) and 100000-130000 dpm of GTPγ^35S per well (0.11-0.14 nM). The basal and maximal stimulated binding are determined in absence and presence of 3 μM SNC-80. The assay performed on HEK 293s cells stably expressing cloned Delta receptors is done in a slightly different buffer (50 mM Hepes, 20 mM NaOH, 200 mM NaCl, 1 mM EDTA, 5 mM MgCl2, pH 7.4, Add fresh: 0.5% BSA, no DTT) and with a 3 μM final conc. of GDP.

human κ receptors = target: T2, human κ receptors (Homo sapiens, UniProt P41145); assay: Binding assay, cloned human κ receptor membranes (125I-DPDYN displacement)
T2 construct: expressed in transfected cells; host or cells: human 293S cells, geneticin-selected
T2 sequence (P41145 whole entry): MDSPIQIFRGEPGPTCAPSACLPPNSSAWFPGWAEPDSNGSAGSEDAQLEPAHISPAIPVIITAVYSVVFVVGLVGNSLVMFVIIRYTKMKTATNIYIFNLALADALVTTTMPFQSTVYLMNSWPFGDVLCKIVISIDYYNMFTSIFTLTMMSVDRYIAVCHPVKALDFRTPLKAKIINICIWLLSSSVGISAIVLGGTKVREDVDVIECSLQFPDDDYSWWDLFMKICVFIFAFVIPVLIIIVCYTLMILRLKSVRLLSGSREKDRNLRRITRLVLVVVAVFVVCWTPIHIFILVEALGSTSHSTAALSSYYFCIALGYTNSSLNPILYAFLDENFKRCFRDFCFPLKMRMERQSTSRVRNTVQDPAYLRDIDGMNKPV

human δ receptors [2] = target: T1, human δ receptors; assay: Binding assay, cloned human δ receptor membranes (125I-Deltorphin II displacement)
human μ receptors = target: T3, human μ receptors (Homo sapiens, UniProt P35372); assay: Binding assay, cloned human μ receptor membranes (125I-FK33824 displacement)
T3 construct: expressed in transfected cells; host or cells: human 293S cells, geneticin-selected
T3 sequence (P35372 whole entry): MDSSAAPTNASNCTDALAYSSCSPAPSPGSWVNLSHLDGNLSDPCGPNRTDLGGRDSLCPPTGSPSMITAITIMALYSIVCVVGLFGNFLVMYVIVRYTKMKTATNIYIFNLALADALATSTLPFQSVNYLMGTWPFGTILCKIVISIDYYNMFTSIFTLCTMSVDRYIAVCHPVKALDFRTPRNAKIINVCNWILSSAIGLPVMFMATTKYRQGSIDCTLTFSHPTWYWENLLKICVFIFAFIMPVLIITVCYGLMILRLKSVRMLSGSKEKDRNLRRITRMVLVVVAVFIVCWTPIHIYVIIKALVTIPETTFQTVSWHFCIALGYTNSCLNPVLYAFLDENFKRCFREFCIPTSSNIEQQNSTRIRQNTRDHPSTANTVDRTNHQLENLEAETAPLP

[3] = target: T4, δ receptors in rat brain membranes (Rattus norvegicus, UniProt P33533); assay: Rat brain GTP[γ]35S binding functional assay; format: biochemical; conditions: for Emax: Table 1, rat brain membranes, relative to SNC80
T4 construct: membranes from HEK-293S cells expressing the cloned human opioid receptors or from homogenised rat or mouse brain; from tissue; host or cells: rat brain homogenate membranes
T4 sequence (P33533 whole entry): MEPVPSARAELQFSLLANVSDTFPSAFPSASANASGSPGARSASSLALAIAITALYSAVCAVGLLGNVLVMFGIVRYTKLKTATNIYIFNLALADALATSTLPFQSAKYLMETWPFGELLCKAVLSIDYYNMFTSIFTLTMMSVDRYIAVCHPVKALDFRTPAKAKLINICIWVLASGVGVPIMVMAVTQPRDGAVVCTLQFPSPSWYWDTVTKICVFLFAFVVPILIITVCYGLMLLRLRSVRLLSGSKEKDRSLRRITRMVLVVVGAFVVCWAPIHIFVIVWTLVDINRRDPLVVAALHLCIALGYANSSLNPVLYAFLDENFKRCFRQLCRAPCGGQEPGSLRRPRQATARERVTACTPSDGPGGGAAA
Protocol: Rat brains are weighed and rinsed in ice-cold PBS (containing 2.5 mM EDTA, pH 7.4). The brains are homogenized with a polytron for 30 sec (rat) in ice-cold lysis buffer (50 mM Tris, pH 7.0, 2.5 mM EDTA, with phenylmethylsulfonyl fluoride added just prior use to […] from a 0.5M stock in DMSO:ethanol).
as §1, §2

[4] = Table 2, lower receptor expression, read-out: Human δ % EMax (low)
[5] = Table 2, read-out: Human κ IC50
[6] = Table 1, higher receptor expression, read-out: Human δ % EMax (high)

CCN(CC)C(=O)c1ccc(C(=C2CCN(Cc3cccs3)CC2)c2cccc(NC(C)=O)c2)cc1 [Compound 1, 4-{[3-(acetylamino)phenyl][1-(thien-2-ylmethyl)piperidin-4-ylidene]methyl}-N,N-diethylbenzamide] showed an Emax (human δ receptors [1]; [4]) of 80 to 112%, an IC50 (human κ receptors; [5]) of 5830 to 9070 nM and an IC50 (human δ receptors [2]) of 0.19 to 1.49 nM.

In the case of CCN(CC)C(=O)c1ccc(C(=C2CCN(Cc3ccco3)CC2)c2cccc(NC(C)=O)c2)cc1 [Compound 2, 4-{[3-(acetylamino)phenyl][1-(2-furylmethyl)piperidin-4-ylidene]methyl}-N,N-diethylbenzamide], the Emax (human δ receptors [1]; [4]) is reported as 80 to 112%, the IC50 (human κ receptors; [5]) is reported as 5830 to 9070 nM and the IC50 (human δ receptors [2]) is reported as 0.19 to 1.49 nM.

Work on CCN(CC)C(=O)c1ccc(C(=C2CCN(Cc3ccccc3)CC2)c2cccc(NC(C)=O)c2)cc1 [Compound 3, 4-[[3-(acetylamino)phenyl][1-(phenylmethyl)-4-piperidinylidene]methyl]-N,N-diethyl-benzamide] yielded an EC50 (human δ receptors [1]) of 1.46 to 2.65 nM, an Emax (human δ receptors [1]; [6]) of 95 to 98% and an IC50 (human μ receptors) of 344 to 368 nM. It also gave an IC50 (human κ receptors) of 2470 to 8000 nM, an EC50 [3] of 7.2 to 15.8 nM and an Emax [3] of 126 to 137%. For the same compound, the IC50 (human δ receptors [2]) was 0.34 to 0.59 nM.

CCN(CC)C(=O)c1ccc(C(=C2CCN(Cc3ccsc3)CC2)c2cccc(NC(C)=O)c2)cc1 [Compound 4, 4-[[3-(acetylamino)phenyl][1-(3-thienylmethyl)-4-piperidinylidene]methyl]-N,N-diethyl-benzamide] showed an EC50 (human δ receptors [1]) of 1.46 to 2.65 nM, an Emax (human δ receptors [1]; [6]) of 95 to 98% and an IC50 (human μ receptors) of 344 to 368 nM. For the same compound, the IC50 (human κ receptors) was 2470 to 8000 nM, the EC50 [3] was 7.2 to 15.8 nM and the Emax [3] was 126 to 137%. It also gave an IC50 (human δ receptors [2]) of 0.34 to 0.59 nM.

Work on CCN(CC)C(=O)c1ccc(C(=C2CCN(Cc3cccnc3)CC2)c2cccc(NC(C)=O)c2)cc1 [Compound 5, 4-[[3-(acetylamino)phenyl][1-(3-pyridinylmethyl)-4-piperidinylidene]methyl]-N,N-diethyl-benzamide] yielded an Emax (human δ receptors [1]; [4]) of 80 to 112%, an IC50 (human κ receptors) of 5830 to 9070 nM and an IC50 (human δ receptors [2]) of 0.19 to 1.49 nM.

CCN(CC)C(=O)c1ccc(C(=C2CCN(Cc3ccncc3)CC2)c2cccc(NC(C)=O)c2)cc1 [Compound 6, 4-[[-3-(acetylamino)phenyl][1-(4-pyridinylmethyl)-4-piperidinylidene]methyl]-N,N-diethyl-benzamide] was tested, and the Emax (human δ receptors [1]; [4]) was 80 to 112%, the IC50 (human κ receptors) was 5830 to 9070 nM and the IC50 (human δ receptors [2]) was 0.19 to 1.49 nM.

In the case of CCN(CC)C(=O)c1ccc(C(=C2CCN(Cc3ccccn3)CC2)c2cccc(NC(C)=O)c2)cc1 [Compound 7, 4-{[3-(acetylamino)phenyl][1-(pyridin-2-ylmethyl)piperidin-4-ylidene]methyl}-N,N-diethylbenzamide], the Emax (human δ receptors [1]; [4]) is reported as 80 to 112%, the IC50 (human κ receptors; [5]) is reported as 5830 to 9070 nM and the IC50 (human δ receptors [2]) is reported as 0.19 to 1.49 nM.

In the case of CCN(CC)C(=O)c1ccc(C(=C2CCN(Cc3cscn3)CC2)c2cccc(NC(C)=O)c2)cc1 [Compound 8, 4-{[3-(acetylamino)phenyl][1-(1,3-thiazol-4-ylmethel)piperidin-4-ylidene]methyl}-N,N-diethylbenzamide], the Emax (human δ receptors [1]; [4]) is reported as 80 to 112%, the IC50 (human κ receptors; [5]) is reported as 5830 to 9070 nM and the IC50 (human δ receptors [2]) is reported as 0.19 to 1.49 nM.

Work on CCN(CC)C(=O)c1ccc(C(=C2CCN(Cc3cncs3)CC2)c2cccc(NC(C)=O)c2)cc1 [Compound 9, 4-{[3-(acetylamino)phenyl][1-(1,3-thiazol-5-ylmethyl)piperidin-4-ylidene]methyl}-N,N-diethylbenzamide] yielded an Emax (human δ receptors [1]; [4]) of 80 to 112%, an IC50 (human κ receptors; [5]) of 5830 to 9070 nM and an IC50 (human δ receptors [2]) of 0.19 to 1.49 nM.
